{
  "source": "patent US8658383B2",
  "about": "“Sweet taste receptor-expressing construct, cell body expressing the same, and utilization thereof” (T. Hasegawa Co., Ltd., priority 2009, dated 2014)",
  "key": {"hT1R3": {"target": "T1, hT1R3 (Homo sapiens, UniProt Q7RTX0)", "T1 construct": "The sweet taste receptor subunits T1R2 and T1R3 include an entire part of each subunit", "T1 sequence (Q7RTX0 21-852)": "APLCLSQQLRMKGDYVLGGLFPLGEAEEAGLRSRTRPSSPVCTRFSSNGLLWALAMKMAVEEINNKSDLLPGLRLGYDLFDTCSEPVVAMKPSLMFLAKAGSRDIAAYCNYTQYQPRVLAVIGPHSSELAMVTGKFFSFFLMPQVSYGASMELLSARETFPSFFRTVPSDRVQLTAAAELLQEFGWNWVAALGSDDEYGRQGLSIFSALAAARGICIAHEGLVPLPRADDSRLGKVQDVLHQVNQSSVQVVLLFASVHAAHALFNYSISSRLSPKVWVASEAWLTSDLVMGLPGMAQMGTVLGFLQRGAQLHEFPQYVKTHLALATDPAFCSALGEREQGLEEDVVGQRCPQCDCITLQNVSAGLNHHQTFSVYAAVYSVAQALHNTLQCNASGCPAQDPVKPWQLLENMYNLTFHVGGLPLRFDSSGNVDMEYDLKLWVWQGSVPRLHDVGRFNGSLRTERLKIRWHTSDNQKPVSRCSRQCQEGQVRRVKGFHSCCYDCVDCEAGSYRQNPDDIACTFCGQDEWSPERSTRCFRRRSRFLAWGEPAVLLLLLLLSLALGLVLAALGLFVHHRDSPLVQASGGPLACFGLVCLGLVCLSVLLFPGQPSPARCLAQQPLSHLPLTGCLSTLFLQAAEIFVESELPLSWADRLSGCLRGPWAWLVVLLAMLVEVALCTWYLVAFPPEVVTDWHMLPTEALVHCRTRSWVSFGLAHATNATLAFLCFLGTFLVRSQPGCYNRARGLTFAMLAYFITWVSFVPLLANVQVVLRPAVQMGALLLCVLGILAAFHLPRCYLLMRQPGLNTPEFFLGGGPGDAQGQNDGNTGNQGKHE", "assay": "Fluorescent microscope calcium imaging (Fura-2 AM) of comparison cultured cell strain (D) expressing hT1R3 and hG16gust44 only", "format": "cell-based", "details": "Aspartame final concentration 10 mM, FIG. 11", "method": "Each of the cultured cell strains (A) to (C) prepared in Example 4 was loaded with a fluorescent calcium indicator Fura-2 AM, and cells were prepared to take them in. Cells loaded with Fura-2 AM were excited at 340 nm and 380 nm, and a fluorescent image observed at 510 nm was taken using a fluorescent microscope and a CCD camera. While the image was taken, Aspartame at a final concentration of 10 mM was administered to cells and, thereafter, the image was continuously taken. From the field of the taken image, 100 cells were randomly selected, and the response cell number was counted.\nAs comparison, using an expression construct consisting of pcDNA5/FRT having a sequence in which a cDNA encoding hT1R3 and a cDNA encoding hG16gust44 are connected downstream of a CMV promoter, so that an IRES sequence is flanked by those cDNAs (FIG. 10), a cultured cell strain (D) was prepared similarly as in Example 4, and the response cell number was subjected to counting as described above."}, "[1]": {"target": "T2, human sweet taste receptor (hT1R2+hT1R3) (Homo sapiens, UniProt Q7RTX0+Q8TE23)", "T2 sequence (Q8TE23 20-839)": "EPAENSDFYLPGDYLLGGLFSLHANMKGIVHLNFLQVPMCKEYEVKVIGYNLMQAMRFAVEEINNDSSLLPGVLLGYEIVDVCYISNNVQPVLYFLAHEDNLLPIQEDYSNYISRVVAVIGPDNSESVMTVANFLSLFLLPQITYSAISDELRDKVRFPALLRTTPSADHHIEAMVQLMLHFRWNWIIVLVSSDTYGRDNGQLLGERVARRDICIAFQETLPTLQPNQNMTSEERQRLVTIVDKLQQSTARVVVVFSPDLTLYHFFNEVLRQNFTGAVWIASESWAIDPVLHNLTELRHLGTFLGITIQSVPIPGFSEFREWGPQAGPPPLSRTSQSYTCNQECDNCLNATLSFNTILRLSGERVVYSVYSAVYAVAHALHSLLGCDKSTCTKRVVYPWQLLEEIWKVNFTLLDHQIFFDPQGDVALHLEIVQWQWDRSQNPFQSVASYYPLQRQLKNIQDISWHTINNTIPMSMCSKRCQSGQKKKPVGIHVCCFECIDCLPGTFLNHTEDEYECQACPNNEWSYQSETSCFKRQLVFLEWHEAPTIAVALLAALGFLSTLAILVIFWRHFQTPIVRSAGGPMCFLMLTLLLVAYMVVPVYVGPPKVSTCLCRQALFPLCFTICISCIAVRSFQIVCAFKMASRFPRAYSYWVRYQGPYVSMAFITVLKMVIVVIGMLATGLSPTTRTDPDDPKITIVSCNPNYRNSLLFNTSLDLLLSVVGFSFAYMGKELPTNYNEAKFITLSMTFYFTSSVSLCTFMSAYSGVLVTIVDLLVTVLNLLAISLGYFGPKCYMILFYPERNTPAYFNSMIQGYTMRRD", "T2 sequence (Q7RTX0 21-852)": "T1 sequence (Q7RTX0 21-852)", "assay": "Fluorescent microscope calcium imaging (Fura-2 AM) of cultured cell strains (A) to (C)", "details": "for cell response (response cell number of 100 randomly selected cells): Aspartame final concentration 10 mM, FIG. 11", "description": "Fluorescent calcium imaging using a fluorescent microscope can be performed according to the following procedure.\nFirst, cells are suspended in a low glucose (1,000 mg/ml) DMEM medium, from which hygromycin B has been removed, and each 40 to 80 thousands cells are seeded on each well of a 96-well plate (Greiner, Lumox).\nThen, after cultured at 37° C. for 24 to 48 hours, a medium is removed and is replaced with a suitable amount of a HEPES buffer, and a HEPES buffer containing a fluorescent calcium indicator (Fura-2 AM) is further added.\nAfter incubated at 27 to 37° C. for 30 to 60 minutes, an extracellular fluorescent indicator is removed, and this is finally replaced with a suitable amount of a HEPES buffer, and is allowed to stand at room temperature for 10 to 20 minutes. By adding thereto a sweet taste substance at a particular concentration or a solution of a sweet taste substance and a substance to be tested, taste stimulation is performed at room temperature. In the fluorescent indicator Fura-2 (excitation wavelength: 340 nm/380 nm, fluorescent wavelength: 510 nm), a fluorescent intensity of excitation at 340 nm is increased, and a fluorescent intensity of excitation at 380 nm is reduced, when a calcium ion concentration is increased.\nCells loaded with Fura-2 AM were excited at 340 nm and 380 nm, and a fluorescent image observed at 510 nm was taken using a fluorescent microscope and a CCD camera. While the image was taken, Aspartame at each final concentration of 0.1 mM, 0.5 mM, 1 mM, 2 mM and 5 mM was administered to cells and then the image was continuously taken.\nCells loaded with Fura-2 AM were excited at 340 nm and 380 nm, and a fluorescent image observed at 510 nm was taken by using a fluorescent microscope and a CCD camera. While the image was taken, Sucrose at each final concentration of 20 mM, 50 mM, 100 mM, 200 mM, 500 mM and 1 M was administered to cells and then the image was continuously taken.\nCells loaded with Fura-2 AM were excited at 340 nm and 380 nm, and a fluorescent image observed at 510 nm was taken by using a fluorescent microscope and a CCD camera. While the image was taken, sucrose at final concentration of 500 mM was administered to cells and then the image was continuously taken."}, "[2]": {"target": "T2, human sweet taste receptor (hT1R2+hT1R3)", "assay": "Automated fluorescent calcium imaging (Fluo-4 AM, FlexStation 3) of cultured cell strain (A)", "format": "cell-based", "parameters": "The sweet taste receptor subunits T1R2 and T1R3 include an entire part of each subunit", "details": "Average ± S.E., n = 2"}},
  "note": "Residues, ends and D or L forms follow the SMILES beside them.",
  "data": [
    {"smiles": "COC(=O)[C@H](Cc1ccccc1)NC(=O)[C@@H](N)CC(=O)O", "note": "[aspartame] (H-Asp-Phe-OMe)", "values": [
      {"measurement": "cell response (response cell number of 100 randomly selected cells)", "setting": "hT1R3", "result": "cell response was not observed"},
      {"measurement": "cell response (response cell number of 100 randomly selected cells)", "setting": "[1]; cultured cell strain (A)", "result": "very strong cell response was observed"},
      {"measurement": "cell response (response cell number of 100 randomly selected cells)", "setting": "[1]; cultured cell strain (B), compared with strain (A)", "result": "weaker cell response was observed"},
      {"measurement": "cell response (response cell number of 100 randomly selected cells)", "setting": "[1]; cultured cell strain (C), compared with strain (A)", "result": "weaker cell response was observed"},
      {"measurement": "sweet taste response (fluorescent images)", "setting": "[1]; cultured cell strain (A), Aspartame in a range of 0.1 mM to 5 mM, FIG. 12", "result": "concentration-dependent sweet taste response was observed"},
      {"measurement": "Change amount of fluorescent intensity (ΔF)", "setting": "[2]; aspartame 0.08 mM", "result": "4.8 ± 0.1"},
      {"measurement": "Change amount of fluorescent intensity (ΔF)", "setting": "[2]; aspartame 5 mM", "result": "31.1 ± 2.4"}
    ]}
  ]
}
